# Source: US10947196B2, “Beta adrenergic agonist and methods of using the same” (CURASEN THERAPEUTICS, INC., priority 2019, dated 2021)
# pEC50: −log10 of the molar value. Read-outs that look alike come from different tables or passages of the source.
# Legend:
# β1-adrenergic receptor = β1-adrenergic receptor (Homo sapiens (Human), UniProt P08588); assay: cAMP Gs dynamic HTRF assay, β1 expressing CHO cells; assay type: cell-based; settings: B1-AR; for EC50: read-out: Average pEC50 [Receptor subtype: B1-AR, Cell type: CHO-K1 (HitHunter)] (converted)
# Description: (§1) cAMP homogeneous time-resolved fluorescence (HTRF). Compound efficacy was determined using the cAMP Gs dynamic HTRF assay (Cisbio, catalog #62AM4PEC) largely following the manufacturer's instructions, also detailed below.
# (§2) Compound preparation. […] Standard serial dilution curves were 10-point, 5-fold dilutions starting from a highest concentration of 10 μM. […] Assay plates were centrifuged at 500×g for 10 seconds. Compounds and IBMX were prepared at 2× final dose to compensate for addition of cells.
# (§3) Cell preparation. 1× stimulation buffer, washing PBS (Dulbecco's phosphate-buffered saline, −Mg −Ca; Caisson Labs, catalog #PBL01), assay PBS (Dulbecco's phosphate-buffered saline, +Mg, +Ca; Caisson Labs, catalog #PBL02) and Versene (0.02% EDTA disodium salt solution in PBS without calcium or magnesium; Caisson Labs, catalog #EDL01) were pre-warmed to 37° C. Cells expressing beta-adrenergic receptor were washed in washing PBS to remove growth medium and then released from the surface by incubating with Versene for 5-10 minutes at 37° C. Cells were harvested using assay PBS, counted manually by hemocytometer or by an automated cell counter, pelleted by centrifugation (200×g, 5 minutes) and resuspended in 37° C. 1× stimulation buffer to a final density of 1.5×10^6 cells/mL. 5 μL of the suspended cell solution (7500 cell total) were added to all wells of the 384 well assay plate, the assay plate was covered with an Axygen® plate seal (Corning PCR-SP) and incubated in a humidified 37° C. environment supplemented with 5% CO2 for 30 minutes.
# (§4) HTRF reagent addition, reading and data analysis. After 30 minutes of cell stimulation with test compound, the assay plates were centrifuged at 500×g for 10 seconds, and incubation was stopped with the addition of 5 μL cAMP-D2 acceptor, diluted 1:21 in detection and lysis buffer 2 (Cisbio 62CL2FDF) was added to all cells. Subsequently, 5 μL Anti-cAMP-Eu Donor, diluted 1:21 in detection and lysis buffer 2, was added to cells. Plates were sealed and reactions gently ‘vortexed’ at 900 rpm on a Heidolph Titramax 1000 for at least 30 minutes at room temperature. Plates were centrifuged again at 500×g for 10 seconds, and HTRF was measured using a Tecan Spark plate reader at 50 flashes per well. […] Potency estimates (EC50) were derived from the four-parameter nonlinear regression of the concentration-effect curve and an estimate of relative efficacy was determined by comparing the magnitude of the test compound HTRF signal window (min−max dose) with the signal window of the full agonist control, isoproterenol.
# β2 adrenergic receptor = β2 adrenergic receptor (Homo sapiens (Human), UniProt P07550); assay: cAMP Gs dynamic HTRF assay, β2 expressing CHO cells; assay type: cell-based; settings: B2-AR; for EC50: read-out: Average pEC50 [Receptor subtype: B2-AR, Cell type: CHO-K1 (HitHunter)] (converted)
# Description: as §1, §2, §3, §4
# [1] = CHO-K cells, read-out: Average EC50 [Receptor subtype: B1-AR, Cell type: CHO-K]
# [2] = CHO-K cells, read-out: Average EC50 [Receptor subtype: B2-AR, Cell type: CHO-K]
# β1-adrenergic receptor, sequence (P08588 whole entry, species assumed): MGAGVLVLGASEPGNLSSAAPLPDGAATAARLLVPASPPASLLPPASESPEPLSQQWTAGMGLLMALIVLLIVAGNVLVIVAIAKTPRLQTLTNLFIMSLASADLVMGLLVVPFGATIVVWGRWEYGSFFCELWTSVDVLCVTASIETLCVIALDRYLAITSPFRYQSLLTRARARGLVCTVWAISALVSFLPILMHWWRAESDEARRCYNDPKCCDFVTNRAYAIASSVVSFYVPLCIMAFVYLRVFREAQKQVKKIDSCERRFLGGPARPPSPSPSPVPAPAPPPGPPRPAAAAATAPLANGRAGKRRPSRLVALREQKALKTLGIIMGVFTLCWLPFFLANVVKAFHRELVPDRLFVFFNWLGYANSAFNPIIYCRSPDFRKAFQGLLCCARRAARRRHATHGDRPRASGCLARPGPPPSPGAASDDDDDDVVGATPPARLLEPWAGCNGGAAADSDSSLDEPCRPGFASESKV
# β2 adrenergic receptor, sequence (P07550 whole entry, species assumed): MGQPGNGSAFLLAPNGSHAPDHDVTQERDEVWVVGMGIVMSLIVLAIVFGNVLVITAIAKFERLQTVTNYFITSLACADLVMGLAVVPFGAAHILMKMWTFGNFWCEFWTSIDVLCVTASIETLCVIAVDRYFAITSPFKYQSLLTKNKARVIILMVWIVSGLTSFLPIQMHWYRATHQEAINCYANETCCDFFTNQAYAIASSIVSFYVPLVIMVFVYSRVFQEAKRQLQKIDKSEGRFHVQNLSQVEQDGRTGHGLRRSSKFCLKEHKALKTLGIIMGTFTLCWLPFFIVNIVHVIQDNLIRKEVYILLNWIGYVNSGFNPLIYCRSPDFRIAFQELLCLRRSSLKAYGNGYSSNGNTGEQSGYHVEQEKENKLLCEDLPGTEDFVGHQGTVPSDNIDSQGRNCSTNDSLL
Structure (SMILES),Average pEC50 [Receptor subtype: B1-AR; Cell type: CHO-K1 (HitHunter)] (β1-adrenergic receptor; CHO-K1 (HitHunter)),pEC50 (β1-adrenergic receptor; [1]),EC50 (β2 adrenergic receptor; CHO-K1 (HitHunter)),pEC50 (β2 adrenergic receptor; [2]),EC50 (β1-adrenergic receptor; CHO-K1 (HitHunter)),"pEC50 (β1-adrenergic receptor; Average pEC50 [Receptor subtype: B1-AR, Cell type: CHO-K1 (HitHunter)], CHO-K1 (HitHunter))","pEC50 (β2 adrenergic receptor; Average pEC50 [Receptor subtype: B2-AR, Cell type: CHO-K1 (HitHunter)], CHO-K1 (HitHunter))"
CC(C)(C)NC[C@H](O)c1cccc(-c2cccnc2)n1 [Compound 03-151],B (B = 8-7),7.00 to 8.00,< 10 nM,> 8.00,,,
CC1(NC[C@H](O)c2cccc(C(F)(F)F)n2)CCOCC1 [Compound 03-23],,6.00 to 7.00,100 to 1000 nM,6.00 to 7.00,100 to 1000 nM,,
CN(C)C(=O)c1cccc([C@@H](O)CNC(C)(C)C)n1 [Compound 03-7],D (D < 6),< 6.00,100 to 1000 nM,6.00 to 7.00,,,
CC(C)(C)NC[C@H](O)c1ccc2cccc(C(F)(F)F)c2n1 [Compound 03-163],,> 8.00,,> 8.00,,,
Cc1ccc(-c2cccc([C@@H](O)CNC(C)(C)C)n2)cc1 [Compound 03-143],,< 6.00,100 to 1000 nM,,> 1000 nM,,
CC(C)(C)NC[C@@H](O)c1cccc(-c2cccc(Cl)c2)n1 [Compound 03-130],C (C = <7-6),6.00 to 7.00,10 to 100 nM,7.00 to 8.00,,,
CC(C)(C)NC[C@@H](O)c1cccc(-c2ccc[nH]2)n1 [Compound 03-244],,,10 to 100 nM,,100 to 1000 nM,,
CC(C)(C)NC[C@H](O)c1cccc(OC(C)(C)C)n1 [Compound 03-196],,,< 10 nM,,10 to 100 nM,,
CC(C)(C)NC[C@H](O)c1cccc(C2(C#N)CC2)n1 [Compound 03-206],,,< 10 nM,,< 10 nM,,
COc1ccc(C[C@@H](C)NC[C@H](O)c2cnc(C)nc2C)cc1 [Compound 03-270],,,,,,< 6.00,7.00 to 8.00
CC(C)(C)NC[C@H](O)c1cccc(-n2cccn2)n1 [Compound 03-214],,,< 10 nM,,100 to 1000 nM,,
Cc1cc([C@H](O)CNC(C)(C)C)ccn1 [Compound 03-109],,,100 to 1000 nM,,100 to 1000 nM,,
CC1(NC[C@@H](O)c2cccc(C(F)(F)F)n2)CCC1 [Compound 03-12],,< 6.00,100 to 1000 nM,6.00 to 7.00,> 1000 nM,,
CC(C)(C)NC[C@@H](O)c1ccnc(C(F)(F)F)c1 [Compound 03-211],,,100 to 1000 nM,,100 to 1000 nM,,
Cn1ccc(-c2cccc([C@H](O)CNC(C)(C)C)n2)n1 [Compound 03-226],,,100 to 1000 nM,,> 1000 nM,,
COc1ccc([C@@H](O)CNC(C)(C)C)c(C)n1 [Compound 03-259],,,< 10 nM,,10 to 100 nM,,
CC(C)(C)NC[C@H](O)c1cccc(N)n1 [Compound 03-98],,,> 1000 nM,,> 1000 nM,,
Cc1ccc([C@@H](O)CNC(C)(C)C)c(C2=CCCC2)n1 [Compound 03-90],,,> 1000 nM,,> 1000 nM,,
CC(C)(C)NC[C@H](O)c1cccnc1-n1ccnn1 [Compound 03-241],,,> 1000 nM,,> 1000 nM,,
CCN(CC)c1cccc([C@H](O)CNC(C)(C)C)n1 [Compound 03-160],,6.00 to 7.00,100 to 1000 nM,,,,
CC(C)(C)NC[C@H](O)c1cccc(C2=N[C@H](C(=O)O)CS2)n1 [Compound 03-246],,,> 1000 nM,,> 1000 nM,,
COc1ccc(C[C@@H](C)NC[C@H](O)c2cc(Cl)cnc2C)cc1 [Compound 03-271],,,10 to 100 nM,,100 to 1000 nM,,
[2H]C([2H])([2H])C(NCC(O)c1cccnc1C)(C([2H])([2H])[2H])C([2H])([2H])[2H] (stereo not drawn) [Compound 03-278],,,< 10 nM,,100 to 1000 nM,,
CC(C)(C)NC[C@H](O)c1cccc(Br)n1 [Compound 03-32],,> 8.00,10 to 100 nM,7.00 to 8.00,< 10 nM,,
CC(C)(C)NC[C@H](O)c1ccc(C#N)cn1 [Compound 03-212],,,100 to 1000 nM,,> 1000 nM,,

Structure (SMILES),Average pEC50 [Receptor subtype: B1-AR; Cell type: CHO-K1 (HitHunter)] (β1-adrenergic receptor; CHO-K1 (HitHunter)),pEC50 (β1-adrenergic receptor; [1]),EC50 (β2 adrenergic receptor; CHO-K1 (HitHunter)),pEC50 (β2 adrenergic receptor; [2]),EC50 (β1-adrenergic receptor; CHO-K1 (HitHunter)),"pEC50 (β1-adrenergic receptor; Average pEC50 [Receptor subtype: B1-AR, Cell type: CHO-K1 (HitHunter)], CHO-K1 (HitHunter))","pEC50 (β2 adrenergic receptor; Average pEC50 [Receptor subtype: B2-AR, Cell type: CHO-K1 (HitHunter)], CHO-K1 (HitHunter))"
CC(C)(C)NC[C@@H](O)c1ccc2cccc(C(F)(F)F)c2n1 [Compound 03-164],,6.00 to 7.00,,> 8.00,,,
Cc1cccc(-c2cccc([C@H](O)CNC(C)(C)C)n2)c1 [Compound 03-148],,6.00 to 7.00,100 to 1000 nM,6.00 to 7.00,100 to 1000 nM,,
CC(=O)Nc1cccc([C@H](O)CNC(C)(C)C)n1 [Compound 03-239],,,10 to 100 nM,,100 to 1000 nM,,
CNc1ccc([C@@H](O)CNC(C)(C)C)c(C)n1 [Compound 03-276],,,10 to 100 nM,,100 to 1000 nM,,
Cc1ccccc1-c1cccc([C@@H](O)CNC(C)(C)C)n1 [Compound 03-149],,6.00 to 7.00,< 10 nM,> 8.00,100 to 1000 nM,,
CC(C)(C)NC[C@H](O)c1cc(C(F)(F)F)cnc1C1=CCCC1 [Compound 03-92],,,> 1000 nM,,> 1000 nM,,
CC(C)(C)NC[C@H](O)c1ccc2ccccc2n1 [Compound 03-165],,> 8.00,,> 8.00,,,
Cc1cccc([C@H](O)CNC(C)(C)C)n1 [Compound 03-47],,< 6.00,> 1000 nM,< 6.00,> 1000 nM,,
COc1ccc(C[C@@H](C)NC[C@@H](O)c2cccc(C(F)(F)F)n2)cc1 [Compound 03-16],,6.00 to 7.00,10 to 100 nM,7.00 to 8.00,100 to 1000 nM,,
O[C@@H](CNC1CCOCC1)c1cccc(C(F)(F)F)n1 [Compound 03-25],D (D < 6),< 6.00,> 1000 nM,< 6.00,,,
"Cc1cnccc1[C@@H](O)CNC(C)(C)C [Compound 03-247, (R)-2-(tert-butylamino)-1-(3-methylpyridin-4-yl)ethan-1-ol]",,,> 1000 nM,,> 1000 nM,,
CC1(NC[C@@H](O)c2cccc(C(F)(F)F)n2)CC1 [Compound 03-13],,< 6.00,> 1000 nM,< 6.00,> 1000 nM,,
CC(C)(C)NC[C@@H](O)c1cccc(C2CCOCC2)n1 [Compound 03-122],,< 6.00,100 to 1000 nM,6.00 to 7.00,> 1000 nM,,
CC(C)(C)NC[C@H](O)c1cccc(-c2ccc(F)cc2)n1 [Compound 03-145],,7.00 to 8.00,< 10 nM,> 8.00,10 to 100 nM,,
Cc1cc([C@H](O)CNC(C)(C)C)nc(C(F)(F)F)c1 [Compound 03-20],,< 6.00,100 to 1000 nM,6.00 to 7.00,> 1000 nM,,
CC(C)(C)NC[C@H](O)c1cccc(-n2ccnc2)n1 [Compound 03-213],,,10 to 100 nM,,> 1000 nM,,
CC(C)(C)NC[C@H](O)c1cccc(C2CCCC2)n1 [Compound 03-198],,,10 to 100 nM,,> 1000 nM,,
CC(C)(C)NC[C@@H](O)c1cccc(C(F)(F)F)n1 [Compound 03-43],,< 6.00,100 to 1000 nM,< 6.00,> 1000 nM,,
CC(C)(C)NC[C@H](O)c1cccc(C(C)(C)C#N)n1 [Compound 03-207],,,< 10 nM,,< 10 nM,,
CC(C)(C)NC[C@H](O)c1cccc(Cl)n1 [Compound 03-231],,,10 to 100 nM,,> 1000 nM,,
CC(C)(C)NC[C@H](O)c1cccc(C(N)=O)n1 [Compound 03-17],D (D < 6),< 6.00,> 1000 nM,< 6.00,,,
CC(C)(C)NC[C@H](O)c1cccc(-c2ccccc2Cl)n1 [Compound 03-133],C (C = <7-6),6.00 to 7.00,< 10 nM,> 8.00,,,
CC(C)(C)NC[C@H](O)c1cccnc1C1CCC1 [Compound 03-68],,,10 to 100 nM,,100 to 1000 nM,,
Cc1nc(NC2CC2)ccc1[C@@H](O)CNC(C)(C)C [Compound 03-274],,,10 to 100 nM,,> 1000 nM,,
